# According to patent US7749486B2 (Hoffmann-La Roche Inc., priority 2006, dated 2010):
# Experiments:
# LOX-GFP-LM cells = test: LOX-GFP-LM experimental metastasis model (lung homogenate fluorescence and survival); assay type: in vivo, SCID beige mice; settings: for TGI % At day 26 (tumor growth inhibition relative to Vehicle control group) / RFU (mean ± SD) of lung homogenate / ILS % (increased lifetime-span) / 50% survival days / TGI % At day 25 (tumor growth inhibition relative to Vehicle control group): bid
# Procedure: Female SCID beige mice were injected iv via the tail vein with 2 million cells in a volume of 200 μl serum free RPMI1640, randomized into groups, and treated as shown in Tables 6 and 7 with a variety of doses and/or dose schedules. […] The remaining mice from each group were monitored for survival benefit until they were moribund.
# Two parameters were assessed for quantitative evaluation of anti-metastatic efficacy: 1) Fluorescence intensity of lung homogenates and 2) Survival.
# 5 mice per treatment group were removed from the study at Day 25 or 26 for evaluation of lung metastatic tumor burden. Mice were euthanized, and lungs were removed, placed in 3 ml saline, and homogenized. 0.2 ml of lung homogenate was transferred to a 96 well plate, and fluorescence was read using Acumen Explorer. […] Fluorescence was reported in relative fluorescence units (RFU). […] Statistical analysis was determined by Student-test or Mann-Whitney U test, and statistic differences between groups were considered to be significant when the probability value (p) was ≦0.05.
# Survival represented overall metastatic status either due to lung metastasis or metastasis to other organs. Moribundity due to labored breathing or hind limb paralysis was monitored and recorded as the surrogate endpoint for survival. For survival assessment, results were plotted as the percentage survival against days after tumor implant. The Increased lifetime-span (% ILS) was calculated as: ILS %=100×[(median survival day of treated group−median survival day of control group)/median survival day of control group]. Median survival or (50% survival time) was determined utilizing Kaplan Meier survival analysis. […] Differences in survival were analyzed by the log-rank test. Statistic differences between groups were considered to be significant when the probability value (p) was ≦0.05.
# LOX-GFP cells = test: LOX-GFP peritoneal (ascites) model; assay type: in vivo, Nu/Nu mice
# Procedure: Human melanoma LOX-GFP cells, prepared in accordance with the procedure of Example 3, were maintained in RPMI 1640 medium plus 10% FBS, and 1% Geneticin (G418).
# Mice were euthanized, and then a small incision was made along the midline of the abdomen through the skin and peritoneum. A glass Pasteur pipet was utilized to aspirate and remove ascites fluid from the peritoneum, and the ascites was transferred to a 15 ml tube. 3 ml saline was used to rinse the peritoneal cavity, and all of the saline was recovered and transferred into the 15 ml tube containing the ascites fluid. The ascites cell suspension was filtered through a 40 μm nylon filter to obtain a single cell suspension and centrifuged at 1500 rpm for 10 min. The supernatant was removed, and the cell pellet was resuspended in 2 ml of fresh saline. 0.1 ml from each sample was transferred into a 96 well plate to evaluate cell number (reported as relative fluorescence units) utilizing an Acumen Explorer.
# [1] = 25, 50, 100 mg/kg po bid, 6 doses (Days 4, 5 & 6), ascites harvest Day 7
structure (smiles),measurement,setting,value
"COc1ccc(C2=N[C@@H](c3ccc(Cl)cc3)[C@@H](c3ccc(Cl)cc3)N2C(=O)N2CCNC(=O)C2)c(OC(C)C)c1 (stereo in doubt) [Compound D, 4-[(4S,5R)-4,5-Bis-(4-chloro-phenyl)-2-(2-isopropoxy-4-methoxy-phenyl)-4,5-dihydro-imidazole-1-carbonyl]-piperazin-2-one]",TGI % At day 26 (tumor growth inhibition relative to Vehicle control group),"LOX-GFP-LM cells; 200 mg/kg po, Day 3-21",96.2%
same,RFU (mean ± SD) of lung homogenate,"LOX-GFP-LM cells; 200 mg/kg po, Day 3-21, lungs at day 26",2359191 ± 526586 RFU
same,ILS % (increased lifetime-span),"LOX-GFP-LM cells; 200 mg/kg po, Day 3-d21",29%
same,50% survival days,"LOX-GFP-LM cells; 200 mg/kg po, Day 3-d21, Vehicle 28 days",36 days
same,TGI % At day 26 (tumor growth inhibition relative to Vehicle control group),"LOX-GFP-LM cells; 200 mg/kg po, Day −1-7",66.0%
same,RFU (mean ± SD) of lung homogenate,"LOX-GFP-LM cells; 200 mg/kg po, Day −1-7, lungs at day 26",21092887 ± 10460489 RFU
same,TGI % At day 26 (tumor growth inhibition relative to Vehicle control group),"LOX-GFP-LM cells; 200 mg/kg po, Day −1-21",78.7%
same,RFU (mean ± SD) of lung homogenate,"LOX-GFP-LM cells; 200 mg/kg po, Day −1-21, lungs at day 26",13230372 ± 11960417 RFU
same,ILS % (increased lifetime-span),"LOX-GFP-LM cells; 200 mg/kg po, Day −1-d7",0%
same,50% survival days,"LOX-GFP-LM cells; 200 mg/kg po, Day −1-d7, Vehicle 28 days",28 days
same,ILS % (increased lifetime-span),"LOX-GFP-LM cells; 200 mg/kg po, Day −1-d21",10.7%
same,50% survival days,"LOX-GFP-LM cells; 200 mg/kg po, Day −1-d21, Vehicle 28 days",31 days
same,anti-metastatic activity as assessed by fluorescence intensity of lung homogenates,LOX-GFP-LM cells; late intervention (Dosed Day 3 through 23) as compared to Vehicle,superior anti-metastatic activity
same,LOX-GFP ascites growth,LOX-GFP cells; [1],inhibited LOX-GFP ascites growth at several doses
same,dose dependence of LOX-GFP ascites growth inhibition,LOX-GFP cells; [1],not dose-dependent
"COc1ccc(F)c(F)c1C(=O)c1cnc(NC2CCN(S(C)(=O)=O)CC2)nc1N [Compound A, [4-Amino-2-(1-methanesulfonyl-piperidin-4-ylamino)-pyrimidin-5-yl]-(2,3-difluoro-6-methoxy-phenyl)-methanone]",LOX-GFP ascites cell growth,"LOX-GFP cells; Compound A 40 mg/kg po, 2 doses (Days 5 & 6), ascites harvest Day 7",reduced cell growth
same,LOX-GFP ascites cell growth,"LOX-GFP cells; Compound A 40 mg/kg po, 3 doses (Days 4, 5 & 6), ascites harvest Day 7",reduced cell growth maximally
same,LOX-GFP ascites cell growth,"LOX-GFP cells; Compound A 40 mg/kg po, single dose (Day 6), ascites harvest Day 7",did not inhibit cell growth
"COc1ccc(C2=NC(c3ccc(Cl)cc3)C(c3ccc(Cl)cc3)N2C(=O)N2CCNC(=O)C2)c(OC(C)C)c1 (stereo not drawn) [Compound B, 4-[4,5-Bis-(4-chloro-phenyl)-2-(2-isopropoxy-4-methoxy-phenyl)-4,5-dihydro-imidazole-1-carbonyl]-piperazin-2-one]",LOX-GFP ascites growth,"LOX-GFP cells; 40 mg/kg sc, 6 doses, ascites harvest Day 8",demonstrated inhibitory effects on LOX-GFP ascites growth
"CCOc1ccnc2ccc(/C=C3\SC(N[C@@H](CO)c4ccccc4)=NC3=O)cc12 [Compound C, 5-(4-Ethoxy-quinolin-6-ylmeth-(Z)-ylidine)-2-(2-hydroxy-1-(R)-phenyl-ethylamino)-thiazol-4-one]",LOX-GFP ascites growth,"LOX-GFP cells; 200 mg/kg po bid, 12 doses, ascites harvest Day 8",demonstrated inhibitory effects on LOX-GFP ascites growth
Cc1[nH]nc2c1N=C(c1ccccc1Cl)c1cc(N)ccc1N2 [Compound E],TGI % At day 25 (tumor growth inhibition relative to Vehicle control group),"LOX-GFP-LM cells; 5 mg/kg po, Day 3-23",82.3%
same,RFU (mean ± SD) of lung homogenate,"LOX-GFP-LM cells; 5 mg/kg po, Day 3-23, lungs at day 25",8618508 ± 3198528 RFU
same,ILS % (increased lifetime-span),"LOX-GFP-LM cells; 5 mg/kg po, Day 3-d23",16.7%
same,50% survival days,"LOX-GFP-LM cells; 5 mg/kg po, Day 3-d23, Vehicle 24 days",28 days
same,TGI % At day 25 (tumor growth inhibition relative to Vehicle control group),"LOX-GFP-LM cells; 5 mg/kg po, Day −1-7",−5.9%
same,RFU (mean ± SD) of lung homogenate,"LOX-GFP-LM cells; 5 mg/kg po, Day −1-7, lungs at day 25",51670506 ± 29321586 RFU
same,TGI % At day 25 (tumor growth inhibition relative to Vehicle control group),"LOX-GFP-LM cells; 5 mg/kg po, Day −1-23",73.9%
same,RFU (mean ± SD) of lung homogenate,"LOX-GFP-LM cells; 5 mg/kg po, Day −1-23, lungs at day 25",12738540 ± 5426672 RFU
same,ILS % (increased lifetime-span),"LOX-GFP-LM cells; 5 mg/kg po, Day −1-d7",4.2%
same,50% survival days,"LOX-GFP-LM cells; 5 mg/kg po, Day −1-d7, Vehicle 24 days",25 days
same,ILS % (increased lifetime-span),"LOX-GFP-LM cells; 5 mg/kg po, Day −1-d23",16.7%
same,50% survival days,"LOX-GFP-LM cells; 5 mg/kg po, Day −1-d23, Vehicle 24 days",28 days
same,anti-metastatic activity as assessed by fluorescence intensity of lung homogenates,LOX-GFP-LM cells; late intervention (Dosed Day 3 through 23) vs full length intervention (Day −1 through 23),equivalent anti-metastatic activity
"CC(=O)O[C@H]1C(=O)[C@@]2(C)[C@H]([C@H](OC(=O)c3ccccc3)[C@]3(O)C[C@H](OC(=O)[C@H](O)[C@@H](NC(=O)c4ccccc4)c4ccccc4)C(C)=C1C3(C)C)[C@]1(OC(C)=O)CO[C@@H]1C[C@@H]2O [Taxol, reference compound]",LOX-GFP ascites cell growth,"LOX-GFP cells; Taxol 10 mg/kg iv, 2 doses (Days 5 & 6), ascites harvest Day 7",reduced cell growth
same,LOX-GFP ascites cell growth,"LOX-GFP cells; Taxol 10 mg/kg iv, 3 doses (Days 4, 5 & 6), ascites harvest Day 7",reduced cell growth maximally
same,LOX-GFP ascites cell growth,"LOX-GFP cells; Taxol 10 mg/kg iv, single dose (Day 6), ascites harvest Day 7",did not inhibit cell growth
